Biological target: T1, HEK-Blue-hTLR7 cells (Homo sapiens, UniProt Q9NYK1)
T1 construct: expressed in transfected cells; host or cells: HEK-Blue-hTLR7 cells (HEK293-derived reporter line)
T1 sequence (Q9NYK1 27-1049): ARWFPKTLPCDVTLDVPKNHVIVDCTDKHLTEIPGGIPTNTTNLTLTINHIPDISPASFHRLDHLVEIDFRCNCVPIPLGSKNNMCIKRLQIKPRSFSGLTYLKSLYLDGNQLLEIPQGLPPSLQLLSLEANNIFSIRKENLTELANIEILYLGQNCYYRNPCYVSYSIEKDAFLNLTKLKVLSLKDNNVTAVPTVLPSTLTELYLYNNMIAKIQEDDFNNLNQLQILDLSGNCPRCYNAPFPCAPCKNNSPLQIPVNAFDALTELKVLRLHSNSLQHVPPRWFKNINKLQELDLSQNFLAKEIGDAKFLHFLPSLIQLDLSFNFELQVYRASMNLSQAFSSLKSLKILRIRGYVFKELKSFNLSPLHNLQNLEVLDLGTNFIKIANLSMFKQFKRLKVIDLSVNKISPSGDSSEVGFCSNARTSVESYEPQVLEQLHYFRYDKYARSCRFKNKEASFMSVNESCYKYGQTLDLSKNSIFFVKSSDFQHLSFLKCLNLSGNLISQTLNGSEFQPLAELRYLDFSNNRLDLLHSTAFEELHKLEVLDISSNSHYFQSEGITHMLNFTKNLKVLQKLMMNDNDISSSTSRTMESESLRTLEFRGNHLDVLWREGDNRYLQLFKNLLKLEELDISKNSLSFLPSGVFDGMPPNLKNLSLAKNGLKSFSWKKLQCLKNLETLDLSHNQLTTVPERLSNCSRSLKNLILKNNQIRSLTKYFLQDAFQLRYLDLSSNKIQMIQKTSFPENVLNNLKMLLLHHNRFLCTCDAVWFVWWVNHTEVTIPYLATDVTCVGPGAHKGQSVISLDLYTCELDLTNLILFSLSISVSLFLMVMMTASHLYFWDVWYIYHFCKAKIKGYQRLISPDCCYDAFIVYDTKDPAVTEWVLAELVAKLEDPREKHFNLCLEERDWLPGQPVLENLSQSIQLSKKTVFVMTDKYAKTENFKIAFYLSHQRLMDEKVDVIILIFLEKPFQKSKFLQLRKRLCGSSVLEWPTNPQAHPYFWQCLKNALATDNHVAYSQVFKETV
Assay: HEK-Blue-hTLR7 cell inhibition assay
Assay type: cell-based
Conditions: R848 0.8 µM, 16 h, OD 620 nm, read-out: TLR7 IC50
In short: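 Cells were pre-incubated 4 h, then co-treated 16 h at 37 °C with compound (10 doses, 0.5–10000 nM final) plus R848 (0.8 µM for TLR7, 3 µM for TLR8) or ODN2006 (1 µM, TLR9). Reporter OD620 gave inhibition relative to DMSO blank and agonist-only controls; IC50 came from curve fitting.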

SMILES | IC50
N#Cc1ccc(N2C[C@]3(c4nnc(N5CCOCC5)o4)C[C@]3(C(F)(F)F)C2)c2cccnc12 [Compound 27, 5-((1S,5R)-1-(5-morpholino-1,3,4-oxadiazol-2-yl)-5-(trifluoromethyl)-3-azabicyclo[3.1.0]hexan-3-yl)quinoline-8-carbonitrile] | < 100 nM
CN1CCC(Oc2nnc([C@]34CN(c5ccc(C(F)(F)F)c6ncccc56)C[C@@]3(C(F)(F)F)C4)o2)CC1 [Compound 92, 2-((1-methylpiperidin-4-yl)oxy)-5-((1S,5R)-5-(trifluoromethyl)-3-(8-(trifluoromethyl)quinolin-5-yl)-3-azabicyclo[3.1.0]hexan-1-yl)-1,3,4-oxadiazole] | < 100 nM
Cn1c(CN2CCCC2)nnc1[C@]12CN(c3ccc(C#N)c4ncccc34)C[C@@]1(C(F)(F)F)C2 [Compound 44, 5-((1S,5R)-1-(4-methyl-5-(pyrrolidin-1-ylmethyl)-4H-1,2,4-triazol-3-yl)-5-(trifluoromethyl)-3-azabicyclo[3.1.0]hexan-3-yl)quinoline-8-carbonitrile] | < 1000 nM
CN1CCC(n2cnc([C@]34CN(c5ccc(C#N)c6ncccc56)C[C@@]3(C(F)(F)F)C4)n2)CC1 [Compound 23, 5-((1S,5R)-1-(1-(1-methylpiperidin-4-yl)-1H-1,2,4-triazol-3-yl)-5-(trifluoromethyl)-3-azabicyclo[3.1.0]hexan-3-yl)quinoline-8-carbonitrile] | < 100 nM
N#Cc1ccc(N2C[C@]3(c4nnc(C5(F)CCNCC5)o4)C[C@]3(C(F)(F)F)C2)c2cccnc12 [Compound 60, 5-((1S,5R)-1-(5-(4-fluoropiperidin-4-yl)-1,3,4-oxadiazol-2-yl)-5-(trifluoromethyl)-3-azabicyclo[3.1.0]hexan-3-yl)quinoline-8-carbonitrile] | < 100 nM
CN1CCC(c2nnc([C@]34CN(c5ccc(C#N)n6ncc(F)c56)C[C@@]3(C(F)(F)F)C4)o2)CC1 [Compound 57, 3-fluoro-4-((1S,5R)-1-(5-(1-methylpiperidin-4-yl)-1,3,4-oxadiazol-2-yl)-5-(trifluoromethyl)-3-azabicyclo[3.1.0]hexan-3-yl)pyrazolo[1,5-a]pyridine-7-carbonitrile] | < 100 nM

Results, then the compound that gave them:

IC50 | SMILES
< 100 nM | NC12CCC(c3nnc([C@]45CN(c6ccc(C(F)(F)F)c7ncccc67)C[C@@]4(C(F)(F)F)C5)o3)(CC1)CC2 [Compound 81, 4-(5-((1S,5R)-5-(trifluoromethyl)-3-(8-(trifluoromethyl)quinolin-5-yl)-3-azabicyclo[3.1.0]hexan-1-yl)-1,3,4-oxadiazol-2-yl)bicyclo[2.2.2]octan-1-amine]
< 100 nM | CN1CCC(c2nnc([C@]34CN(c5ccc(C(F)(F)F)n6nccc56)C[C@@]3(C(F)(F)F)C4)o2)CC1 [Compound 87, 2-(1-methylpiperidin-4-yl)-5-((1S,5R)-5-(trifluoromethyl)-3-(7-(trifluoromethyl)pyrazolo[1,5-a]pyridin-4-yl)-3-azabicyclo[3.1.0]hexan-1-yl)-1,3,4-oxadiazole]
< 100 nM | FC(F)(F)c1ccc(N2C[C@]3(c4nnc(C5CCNCC5)o4)C[C@]3(C(F)(F)F)C2)c2cccnc12 [Compound 75, 2-(piperidin-4-yl)-5-((1S,5R)-5-(trifluoromethyl)-3-(8-(trifluoromethyl)quinolin-5-yl)-3-azabicyclo[3.1.0]hexan-1-yl)-1,3,4-oxadiazole]
< 1000 nM | CN1CCC(c2nnc([C@]34CN(c5ccc(C#N)n6ncc(Br)c56)C[C@@]3(C(F)(F)F)C4)o2)CC1 [Compound 83, 3-bromo-4-((1S,5R)-1-(5-(1-methylpiperidin-4-yl)-1,3,4-oxadiazol-2-yl)-5-(trifluoromethyl)-3-azabicyclo[3.1.0]hexan-3-yl)pyrazolo[1,5-a]pyridine-7-carbonitrile]
< 100 nM | CN1CCC(Nc2nnc([C@]34CN(c5ccc(C#N)c6ncccc56)C[C@@]3(C(F)(F)F)C4)o2)CC1 [Compound 6, 5-((1S,5R)-1-(5-((1-methylpiperidin-4-yl)amino)-1,3,4-oxadiazol-2-yl)-5-(trifluoromethyl)-3-azabicyclo[3.1.0]hexan-3-yl)quinoline-8-carbonitrile]

Reference: patent EP4806891A1 (Kangbaida (Sichuan) Biotechnology Co., Ltd., priority 2023, dated 2025)
